The data set relates to CCRIS mutagenicity, Ames/micronucleus/aberration tests. In words: CCRIS mutagenicity studies.
[1] abbreviates: Test System: AMES SALMONELLA TYPHIMURIUM, Strain/Indicator: TA98, Metabolic Activation: NONE, Method: PREINCUBATION
Where [2] appears, read: Test System: AMES SALMONELLA TYPHIMURIUM, Strain/Indicator: TA100, Metabolic Activation: NONE, Method: PREINCUBATION
Setting [3] is: Test System: AMES SALMONELLA TYPHIMURIUM, Strain/Indicator: TA1535, Metabolic Activation: NONE, Method: PREINCUBATION
The mark [4] stands for this setting: Test System: AMES SALMONELLA TYPHIMURIUM, Strain/Indicator: TA1535, Metabolic Activation: NONE, Method: STANDARD PLATE.
[5] abbreviates: Test System: AMES SALMONELLA TYPHIMURIUM, Strain/Indicator: TA100, Metabolic Activation: NONE, Method: STANDARD PLATE.

The structures appear in SMILES notation. Active and inactive are the calls of the source. How the calls were made is not given here.

For the compound `CNc1ccc2ncc(C)nc2c1C`, the mutagenic call reads like this: under setting [1], “inactive; negative”; (Test System: AMES SALMONELLA TYPHIMURIUM, Strain/Indicator: TA98, Metabolic Activation: RAT, LIVER, S-9, PCB, Method: PREINCUBATION) “active; positive”; under setting [2], “inactive; negative”; (Test System: AMES SALMONELLA TYPHIMURIUM, Strain/Indicator: TA100, Metabolic Activation: RAT, LIVER, S-9, PCB, Method: PREINCUBATION) “active; positive”.

On to `O=C1OC(=O)c2cc([N+](=O)[O-])ccc21`, for which the mutagenic call was “inactive; negative” (Test System: AMES SALMONELLA TYPHIMURIUM, Strain/Indicator: TA97, Metabolic Activation: HAMSTER, LIVER, S-9, AROCLOR 1254 (10%), Method: PREINCUBATION); “active; positive” (Test System: AMES SALMONELLA TYPHIMURIUM, Strain/Indicator: TA97, Metabolic Activation: NONE, Method: PREINCUBATION); “active; positive” (Test System: AMES SALMONELLA TYPHIMURIUM, Strain/Indicator: TA97, Metabolic Activation: RAT, LIVER, S-9, AROCLOR 1254 (10%), Method: PREINCUBATION); “active; positive” (Test System: AMES SALMONELLA TYPHIMURIUM, Strain/Indicator: TA98, Metabolic Activation: HAMSTER, LIVER, S-9, AROCLOR 1254 (10%), Method: PREINCUBATION); “active; positive” under setting [1]; “active; positive” (Test System: AMES SALMONELLA TYPHIMURIUM, Strain/Indicator: TA98, Metabolic Activation: RAT, LIVER, S-9, AROCLOR 1254 (10%), Method: PREINCUBATION). Also, the mutagenic call (Test System: AMES SALMONELLA TYPHIMURIUM, Strain/Indicator: TA100, Metabolic Activation: HAMSTER, LIVER, S-9, AROCLOR 1254 (10%), Method: PREINCUBATION) was “inactive; negative”; the mutagenic call under setting [2] is “inactive; negative”; the mutagenic call (Test System: AMES SALMONELLA TYPHIMURIUM, Strain/Indicator: TA100, Metabolic Activation: RAT, LIVER, S-9, AROCLOR 1254 (10%), Method: PREINCUBATION) was “inactive; negative”; the mutagenic call (Test System: AMES SALMONELLA TYPHIMURIUM, Strain/Indicator: TA1535, Metabolic Activation: HAMSTER, LIVER, S-9, AROCLOR 1254 (10%), Method: PREINCUBATION) was “active; positive”; the mutagenic call under setting [3] is “inactive; negative”; the mutagenic call (Test System: AMES SALMONELLA TYPHIMURIUM, Strain/Indicator: TA1535, Metabolic Activation: RAT, LIVER, S-9, AROCLOR 1254 (10%), Method: PREINCUBATION) is “inactive; negative”. Moreover, the mutagenic call (Test System: AMES SALMONELLA TYPHIMURIUM, Strain/Indicator: TA1537, Metabolic Activation: HAMSTER, LIVER, S-9, AROCLOR 1254 (10%), Method: PREINCUBATION) is “inactive; negative”; the mutagenic call (Test System: AMES SALMONELLA TYPHIMURIUM, Strain/Indicator: TA1537, Metabolic Activation: NONE, Method: PREINCUBATION) is “active; positive”; the mutagenic call (Test System: AMES SALMONELLA TYPHIMURIUM, Strain/Indicator: TA1537, Metabolic Activation: RAT, LIVER, S-9, AROCLOR 1254 (10%), Method: PREINCUBATION) was “active; positive”.

For the compound `CN1CCN=N1`, the mutagenic call under setting [4] is “active; positive”.

For the compound `CCCCCCCCCCCCC1CCC1=O` (stereo unspecified), the mutagenic call by setting is: (End Point: In vitro micronucleus, Test System: Human TK6 lymphoblasts, Metabolic Activation: None) “active; positive (at highest dose)”; (End Point: In vitro micronucleus, Test System: Human TK6 lymphoblasts, Metabolic Activation: Rat, Liver, S-9, Aroclor (1%)) “active; positive (at highest dose)”; (Test System: Ames Salmonella typhimurium, Strain/Indicator: TA98, Metabolic Activation: None, Method: Microtiter plate-based Miniscreen assay) “inactive; negative”; (Test System: Ames Salmonella typhimurium, Strain/Indicator: TA98, Metabolic Activation: Rat, Liver, S-9, Aroclor 1254 (5%), Method: Microtiter plate-based Miniscreen assay) “inactive; negative”; (Test System: Ames Salmonella typhimurium, Strain/Indicator: TA100, Metabolic Activation: None, Method: Microtiter plate-based Miniscreen assay) “inactive; negative”; (Test System: Ames Salmonella typhimurium, Strain/Indicator: TA100, Metabolic Activation: Rat, Liver, S-9, Aroclor 1254 (5%), Method: Microtiter plate-based Miniscreen assay) “inactive; negative”. Moreover, the mutagenic call (Test System: Ames Salmonella typhimurium, Strain/Indicator: TA1535, Metabolic Activation: None, Method: Microtiter plate-based Miniscreen assay) is “inactive; negative”; the mutagenic call (Test System: Ames Salmonella typhimurium, Strain/Indicator: TA1535, Metabolic Activation: Rat, Liver, S-9, Aroclor 1254 (5%), Method: Microtiter plate-based Miniscreen assay) is “inactive; negative”; the mutagenic call (Test System: Ames Salmonella typhimurium, Strain/Indicator: TA1537, Metabolic Activation: None, Method: Microtiter plate-based Miniscreen assay) was “inactive; negative”; the mutagenic call (Test System: Ames Salmonella typhimurium, Strain/Indicator: TA1537, Metabolic Activation: Rat, Liver, S-9, Aroclor 1254 (5%), Method: Microtiter plate-based Miniscreen assay) is “inactive; negative”.

As to `C[C@@]12CCC=C(C=O)[C@]1(C=O)C2`, the mutagenic call was “active; positive” (Test System: AMES SALMONELLA TYPHIMURIUM, Strain/Indicator: TA98, Metabolic Activation: NONE, Method: STANDARD PLATE) and “active; positive” under setting [5].

Turning to `COc1ccc(CC2CO2)cc1OC` (stereo unspecified), the mutagenic call under setting [2] is “active; positive”, the mutagenic call under setting [5] is “active; positive”, the mutagenic call under setting [3] is “active; positive” and the mutagenic call under setting [4] was “active; positive”.
